{
  "source": "paper PMC5317004",
  "about": "(Scientific Reports, 2017)",
  "experiment": "Time-dependent IVM partitioning into the CHO cell membrane (removal from aqueous phase, absorbance at 245 nm)",
  "type": "physicochemical, Chinese hamster",
  "conditions": "4 μM IVM, 140,000 CHO cells in 1 ml",
  "procedure": "Figure 7 Recovery of ACh-evoked currents in the absence or presence of IVM. […] (B) Representative currents for the same experiment as in A, but with IVM (0.5 μM) added after peak IP1. Currents in A and B were measured at −60 mV. […] Red bars correspond to ACh-elicited currents where IVM was added as in panel B (N = 5). Error bars correspond to SEM. Asterisks correspond to unpaired, two-tailed Student’s t-tests with 0.001 < *P < 0.05, 0.0001 < **P < 0.001 and ***P < 0.0001. (D) Fractional removal of IVM from the aqueous phase of a 1-ml solutions containing 140,000 CHO cells and 4 μM IVM. Removal of IVM was determined following the indicated incubation times by measuring the absorbance of supernatants at 245 nm wavelength (e.g., Supplementary Fig. S3; Supplementary Materials and Methods). Note that, no IVM removal is indicated at the top of the y-axis. […]\nTo assess the IVM partitioning into the CHO cell plasma membrane during a short time period, we followed the procedure of Silberberg et al.[58] with a few modifications accounting for our experimental conditions. To this end, we incubated 140,000 CHO cells (correspond to 3.2 μM plasma membrane lipids[121]) with 4 μM IVM for either 0, 15 or 300 seconds, pelleted the cells by a brief centrifugation (30 seconds), and analyzed the extent of IVM removal from the aqueous solution (elaborated in the Supplementary Materials and Methods). […]",
  "data": [
    {"smiles": "CC[C@H](C)[C@H]1O[C@]2(CC[C@@H]1C)C[C@@H]1C[C@@H](C/C=C(\\C)[C@@H](O[C@H]3C[C@H](OC)[C@@H](O[C@H]4C[C@H](OC)[C@@H](O)[C@H](C)O4)[C@H](C)O3)[C@@H](C)/C=C/C=C3\\CO[C@@H]4[C@H](O)C(C)=C[C@@H](C(=O)O1)[C@]34O)O2", "note": "[IVM, Ivermectin]", "values": [
      {"measurement": "IVM removed from the aqueous solution by the CHO cells", "setting": "15 seconds of incubation", "result": "no statistically significant amount"},
      {"measurement": "IVM removed from the aqueous solution by the CHO cells", "setting": "5 minutes of incubation", "result": "~24", "unit": "%"}
    ]}
  ]
}
